A short description of the data set: Gravimetric vapor sorption (GVS). Type of data set: physicochemical. The conditions noted are these: 25° C. As to the method: GVS experiments were conducted on a Surface Measurement Systems DVS-Advantage. The experiments were performed at 25° C. The instrument was operated in step mode and the relative humidity was increased in 10% RH increments from 0% RH to 90% RH with an extra step at 75% RH, then decreased from 90% RH to 0% RH with an extra step at 75% RH. The mass equilibrium criterion was set at 0.005% change in mass over time (dm/dt). A minimum step time of 15 minutes and a maximum step time of 240 minutes were specified.

Consider `CCN(CC)CC#CCOC(=O)[C@](O)(c1ccccc1)C1CCCCC1` [Form A, (R)-oxybutynin D-malate], for which the hygroscopicity entry (GVS, 0-90% RH) is “non-hygroscopic solid”. For the same compound, the moisture uptake (GVS, between 0-90% RH) was 0.1%. Further, the “change in crystal form after the GVS test” value (after GVS cycle 0-90-0% RH) was “No change in crystal form was observed”.

The record behind these values is patent US20240217918A1 (APNIMED, INC. (DELAWARE), priority 2021, published 2024).
